Consider 4 compounds from patent US9474790B2, “Stable, protracted GLP-1/glucagon receptor co-agonists for medical use” (Novo Nordisk A/S, priority 2013, dated 2016).

Broadly, the EC50 is the concentration at which the effect is half-maximal.

The target in this assay is T1, human GLP-1 receptor (Homo sapiens, UniProt P43220).
T1 construct: expressed in transfected cells; host or cells: BHK cells (parent BHKTS13), clone FCW467-12A/KZ10-1, with CRE luciferase
Put plainly: GLP-1 receptor potency, CRE luciferase reporter gene assay in BHK cells. Type of assay: cell-based. To be noted: BHK cells expressing human GLP-1 receptor, read-out: EC50 GLP-1R. The essentials: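 BHK cells stably expressing human GLP-1 receptor with CRE-luciferase reporter, 5×10EE3 cells/well in phenol red-free DMEM with 10 mM Hepes, 2% ovalbumin, 0.2% Pluronic F-68. Compounds at final 1×10EE-6 to 1×10EE-13 M, 3 h at 37° C; steadylite luminescence; EC50 by four-parameter fit, in pM.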

Numbered stars: 1 amine (or outer) side, 2 acyl side, 3 side chain; on linkers, the order of the positions; unused ones are H or OH. Bridge positions count the residues as written; N and C are the ends. Square brackets hold non-standard residues; d marks the D form. Side chains are listed from the residue outwards. Peptide text beside a SMILES is read from it. I, II: the chains in the order shown. * marks the point of attachment. C18 diacid = O=C(O)CCCCCCCCCCCCCCCCC(=O)*; γGlu = O=C(O)[C@H](CCC(=O)[*:2])N[*:1]; Ac4c = NC1(C(=O)O)CCC1; AEEA = NCCOCCOCC(=O)O; Aib = CC(C)(N)C(=O)O

T1 sequence (P43220 24-463): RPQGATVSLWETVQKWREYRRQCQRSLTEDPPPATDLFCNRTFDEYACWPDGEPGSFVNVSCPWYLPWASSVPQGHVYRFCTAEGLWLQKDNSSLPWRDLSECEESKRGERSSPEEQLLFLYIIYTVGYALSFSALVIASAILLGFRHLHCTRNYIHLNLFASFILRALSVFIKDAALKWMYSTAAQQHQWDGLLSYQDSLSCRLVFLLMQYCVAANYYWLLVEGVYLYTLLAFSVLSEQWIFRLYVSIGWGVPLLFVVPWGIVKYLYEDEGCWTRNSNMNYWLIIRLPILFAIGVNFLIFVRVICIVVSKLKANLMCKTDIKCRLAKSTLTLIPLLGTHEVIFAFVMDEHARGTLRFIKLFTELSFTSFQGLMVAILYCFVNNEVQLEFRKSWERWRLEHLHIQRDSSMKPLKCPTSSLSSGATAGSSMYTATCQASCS

`CC(C)C[C@H](NC(=O)[C@H](Cc1ccc(O)cc1)NC(=O)[C@H](CCCCN)NC(=O)[C@H](CO)NC(=O)[C@H](CC(C)C)NC(=O)[C@H](CC(=O)O)NC(=O)[C@H](CO)NC(=O)[C@@H](NC(=O)[C@H](Cc1ccccc1)NC(=O)[C@@H](NC(=O)CNC(=O)[C@H](CCC(N)=O)NC(=O)C(C)(C)NC(=O)[C@@H](N)Cc1c[nH]cn1)[C@@H](C)O)[C@@H](C)O)C(=O)N[C@@H](CC(=O)O)C(=O)N[C@@H](C)C(=O)N[C@@H](CCCNC(=N)N)C(=O)N[C@@H](CCCNC(=N)N)C(=O)N[C@@H](C)C(=O)N[C@@H](CCCNC(=N)N)C(=O)N[C@@H](CCC(=O)O)C(=O)N[C@@H](Cc1ccccc1)C(=O)N[C@H](C(=O)N[C@@H](CCC(N)=O)C(=O)N[C@@H](Cc1c[nH]c2ccccc12)C(=O)N[C@@H](CC(C)C)C(=O)N[C@@H](CC(C)C)C(=O)N[C@@H](CCCCNC(=O)CC[C@H](NC(=O)CC[C@H](NC(=O)COCCOCCNC(=O)COCCOCCNC(=O)CC[C@H](NC(=O)CCCCCCCCCCCCCCCCC(=O)O)C(=O)O)C(=O)O)C(=O)O)C(=O)N[C@H](C(N)=O)[C@@H](C)O)C(C)C` [Example 43, N^ε28-[(4S)-4-carboxy-4-[[(4S)-4-carboxy-4-[[2-[2-[2-[[2-[2-[2-[[(4S)-4-carboxy-4-(17-carboxyheptadecanoylamino)butanoyl]amino]ethoxy]ethoxy]acetyl]amino]ethoxy]ethoxy]acetyl]amino]butanoyl]amino]butanoyl]-[Aib2,Leu10,Ala16,Arg20,Glu21,Leu27,Lys28]-Glucagon amide] (H-H[Aib]QGTFTSDLSKYLDARRAREFVQWLLK([γGlu-γGlu-AEEA-AEEA-γGlu-C18 diacid])T-NH2; N-terminus assumed): the EC50 is 0.005 nM.

As for `CC(C)C[C@H](NC(=O)[C@H](Cc1ccc(O)cc1)NC(=O)[C@H](CCCCN)NC(=O)[C@H](CO)NC(=O)[C@H](CC(C)C)NC(=O)[C@H](CC(=O)O)NC(=O)[C@H](CO)NC(=O)[C@@H](NC(=O)[C@H](Cc1ccccc1)NC(=O)[C@@H](NC(=O)CNC(=O)[C@H](CCC(N)=O)NC(=O)C1(NC(=O)[C@@H](N)Cc2c[nH]cn2)CCC1)[C@@H](C)O)[C@@H](C)O)C(=O)N[C@@H](CCC(=O)O)C(=O)N[C@@H](CO)C(=O)N[C@@H](CCCNC(=N)N)C(=O)N[C@@H](CCCNC(=N)N)C(=O)N[C@@H](C)C(=O)N[C@@H](CCCNC(=N)N)C(=O)N[C@@H](CCC(=O)O)C(=O)N[C@@H](Cc1ccccc1)C(=O)N[C@H](C(=O)N[C@@H](CCC(N)=O)C(=O)N[C@@H](Cc1c[nH]c2ccccc12)C(=O)N[C@@H](CC(C)C)C(=O)N[C@@H](CC(C)C)C(=O)N[C@@H](CCCCNC(=O)CC[C@H](NC(=O)CC[C@H](NC(=O)COCCOCCNC(=O)COCCOCCNC(=O)CC[C@H](NC(=O)CCCCCCCCCCCCCCCCC(=O)O)C(=O)O)C(=O)O)C(=O)O)C(=O)N[C@H](C(N)=O)[C@@H](C)O)C(C)C` [Example 44, N^ε28-[(4S)-4-carboxy-4-[[(4S)-4-carboxy-4-[[2-[2-[2-[[2-[2-[2-[[(4S)-4-carboxy-4-(17-carboxyheptadecanoylamino)butanoyl]amino]ethoxy]ethoxy]acetyl]amino]ethoxy]ethoxy]acetyl]amino]butanoyl]amino]butanoyl]-[Acb2,Leu10,Glu15,Arg20,Glu21,Leu27,Lys28]-Glucagon amide] (H-H[Ac4c]QGTFTSDLSKYLESRRAREFVQWLLK([γGlu-γGlu-AEEA-AEEA-γGlu-C18 diacid])T-NH2; N-terminus assumed), the EC50 stood at 0.003 nM.

On to `CC(C)C[C@H](NC(=O)[C@H](CC(=O)O)NC(=O)[C@H](CC(C)C)NC(=O)[C@H](Cc1ccc(O)cc1)NC(=O)[C@H](CCCCN)NC(=O)[C@H](CO)NC(=O)[C@H](CC(C)C)NC(=O)[C@H](CC(=O)O)NC(=O)[C@H](CO)NC(=O)[C@@H](NC(=O)[C@H](Cc1ccccc1)NC(=O)[C@@H](NC(=O)CNC(=O)[C@H](CCC(N)=O)NC(=O)C1(NC(=O)[C@@H](N)Cc2c[nH]cn2)CCC1)[C@@H](C)O)[C@@H](C)O)C(=O)N[C@@H](CCCCN)C(=O)N[C@@H](CCCNC(=N)N)C(=O)N[C@@H](C)C(=O)N[C@@H](CCCNC(=N)N)C(=O)N[C@@H](CCC(=O)O)C(=O)N[C@@H](Cc1ccccc1)C(=O)N[C@H](C(=O)N[C@@H](CCC(N)=O)C(=O)N[C@@H](Cc1c[nH]c2ccccc12)C(=O)N[C@@H](CC(C)C)C(=O)N[C@@H](CC(C)C)C(=O)N[C@@H](CCCCNC(=O)CC[C@H](NC(=O)CC[C@H](NC(=O)COCCOCCNC(=O)COCCOCCNC(=O)CC[C@H](NC(=O)CC[C@H](NC(=O)CCCCCCCCCCCCCCCCC(=O)O)C(=O)O)C(=O)O)C(=O)O)C(=O)O)C(=O)N[C@H](C(N)=O)[C@@H](C)O)C(C)C` [Example 47, N^ε28-[(4S)-4-carboxy-4-[[(4S)-4-carboxy-4-[[2-[2-[2-[[2-[2-[2-[[(4S)-4-carboxy-4-[[(4S)-4-carboxy-4-(17-carboxyheptadecanoylamino)butanoyl]amino]butanoyl]amino]ethoxy]ethoxy]acetyl]amino]ethoxy]ethoxy]acetyl]amino]butanoyl]amino]butanoyl]-[Acb2,Leu10,Leu16,Lys17,Arg20,Glu21,Leu27,Lys28]-Glucagon amide] (H-H[Ac4c]QGTFTSDLSKYLDLKRAREFVQWLLK([γGlu-γGlu-AEEA-AEEA-γGlu-γGlu-C18 diacid])T-NH2; N-terminus assumed), for which the EC50 turned out to be 0.017 nM.

On to `CC(C)C[C@H](NC(=O)[C@H](CC(=O)O)NC(=O)[C@H](CC(C)C)NC(=O)[C@H](Cc1ccc(O)cc1)NC(=O)[C@H](CCCCN)NC(=O)[C@H](CO)NC(=O)[C@H](CC(C)C)NC(=O)[C@H](CC(=O)O)NC(=O)[C@H](CO)NC(=O)[C@@H](NC(=O)[C@H](Cc1ccccc1)NC(=O)[C@@H](NC(=O)CNC(=O)[C@H](CCC(N)=O)NC(=O)C1(NC(=O)[C@@H](N)Cc2c[nH]cn2)CCC1)[C@@H](C)O)[C@@H](C)O)C(=O)N[C@@H](CCCCN)C(=O)N[C@@H](CCCNC(=N)N)C(=O)N[C@@H](C)C(=O)N[C@@H](CCCNC(=N)N)C(=O)N[C@@H](CCC(=O)O)C(=O)N[C@@H](Cc1ccccc1)C(=O)N[C@H](C(=O)N[C@@H](CCC(N)=O)C(=O)N[C@@H](Cc1c[nH]c2ccccc12)C(=O)N[C@@H](CC(C)C)C(=O)N[C@@H](CC(C)C)C(=O)N[C@@H](CCCCNC(=O)CNC(=O)[C@H](CO)NC(=O)[C@H](CCC(=O)O)NC(=O)CNC(=O)[C@H](CO)NC(=O)CC[C@H](NC(=O)CC[C@H](NC(=O)CCCCCCCCCCCCCCCCC(=O)O)C(=O)O)C(=O)O)C(=O)N[C@H](C(N)=O)[C@@H](C)O)C(C)C` [Example 48] (I: H-H[Ac4c]QGTFTSDLSKYLDLKRAREFVQWLLKT-NH2 / II: {C18 diacid-γGlu-γGlu}-SGESG; amide I:28-II:C; N-terminus assumed), for which the EC50 was found to be 0.044 nM.
